This note sets out measurements from ChEMBL document CHEMBL1148032, “Hexaprenoid hydroquinones, novel inhibitors of the reverse transcriptase of human immunodeficiency virus type 1” (J Nat Prod, 1993).

In test [1] the target is Human immunodeficiency virus type 1 reverse transcriptase (Human immunodeficiency virus 1) (UniProt Q72547). Put plainly: (§1) Inhibition of DNA dependent DNA polymerase activity of HIV1 BH10 recombinant reverse transcriptase p66/p51 assessed as residual enzyme activity.
For test [2], the target named is T1, Human immunodeficiency virus type 1 reverse transcriptase (Human immunodeficiency virus 1, UniProt Q72547). Described as §1.
Test [3] deals with Human immunodeficiency virus type 1 reverse transcriptase (Human immunodeficiency virus 1) (UniProt Q72547). Briefly: (§2) Inhibition of RNA dependent DNA polymerase activity of HIV1 BH10 recombinant reverse transcriptase p66/p51 assessed as residual enzyme activity by poly(rA)n.oligo(dT)12-18-directed incorporation of [3H]dTTP.
Test [4] has as its target T1, Human immunodeficiency virus type 1 reverse transcriptase. The test is described as §2.
Test [5] shares this target. Put plainly: Inhibition of RNase H activity of HIV1 BH10 recombinant reverse transcriptase p66/p51 assessed as residual enzyme activity […].

`CC1=C(Cc2cc(O)ccc2O)[C@]2(C)CCC[C@@](C)(CC[C@@]3(O)[C@H](C)CC[C@@H]4OC(C)(C)CCC[C@@]43C)[C@H]2CC1`: the Inhibition in test [1] came to 14.7 µM; in test [3], 18.1 µM. The concentration for half-maximal inhibition (IC50) was 1.4 µM in test [2], 2.5 µM in test [4] and above 250 µM in test [5].
For `C[C@@H]1CC=C2[C@@H](CCC[C@@]2(C)CC[C@@]2(C)C3=CCCC(C)(C)[C@H]3CC[C@@H]2C)[C@]1(C)Cc1cc(O)ccc1O`, the Inhibition in test [1] turned out to be 44.4 µM; in test [3], 11.1 µM. For the same compound, the IC50 in test [2] was 4.2 µM; in test [4], 2.8 µM; in test [5], above 250 µM.
Turning to `CC1(C)CCC[C@]2(C)OC3CC[C@](C)(C4CC[C@]5(C)C4CC[C@]4(C)C6=C(CC54)C(=O)C=CC6=O)[C@]3(C)CCC12` (stereo not given in full), the Inhibition in test [1] was determined as 54.5 µM; in test [3] it was 28.6 µM. The IC50 in test [2] is 4.5 µM; in test [4] it was 13.2 µM; in test [5], above 250 µM.
For `CC(=O)CC[C@@H]1[C@](C)(CC[C@@]2(O)[C@H](C)CC[C@@H]3OC(C)(C)CCC[C@@]32C)CCC[C@@]1(C)C(=O)Cc1cc(OS(=O)(=O)O)ccc1OS(=O)(=O)O` [SHAAGROCKOL B], in that order: 40 µM, 21.2 µM, 6.7 µM, 8.5 µM and above 250 µM.
Turning to `CC1=C(Cc2cc(OS(=O)(=O)O)ccc2OS(=O)(=O)O)[C@]2(C)CCC[C@@](C)(CC[C@@]3(O)[C@H](C)CC[C@@H]4OC(C)(C)CCC[C@@]43C)[C@H]2CC1` [SHAAGROCKOL C], the Inhibition was determined as 5 µM in test [1] and 9.3 µM in test [3]. The IC50 in test [2] is 0.8 µM; in test [4] it was 3.3 µM; in test [5], above 250 µM.
On to `CC1(C)CCC[C@]2(C)OC3CC[C@](C)(C4CC[C@]5(C)C4CC[C@]4(C)c6c(OS(=O)(=O)O)ccc(OS(=O)(=O)O)c6CC54)[C@]3(C)CCC12` (stereo not given in full) [TOXICOL A], for which the values for the Inhibition in test [1] and in test [3] were 5.2 µM and 6.5 µM, respectively. Besides, the IC50 in test [2] is 2.7 µM; in test [4], 3.1 µM; in test [5] it was above 250 µM.
As for `CC1(C)CCC[C@]2(C)OC3CC[C@](C)(C4CC[C@]5(C)C4CC[C@]4(C)c6c(O)ccc(O)c6CC54)[C@]3(C)CCC12` (stereo not given in full) [TOXICOL B], the figures for the Inhibition in test [1] and in test [3] were 56.2 µM and 11.1 µM, respectively. The values for the 50% inhibitory concentration (IC50) in test [2], in test [4] and in test [5] were 8.2 µM, 3.7 µM and above 250 µM, respectively.
For `C[C@@H]1CC=C2[C@@H](CCC[C@@]2(C)CC[C@@]2(C)C3=CCCC(C)(C)[C@H]3CC[C@@H]2C)[C@]1(C)Cc1cc(OS(=O)(=O)O)ccc1OS(=O)(=O)O` [TOXIUSOL SODIUM] the same measures were 41.6 µM, 4.6 µM, 6.6 µM, 1.5 µM and above 250 µM.

By IC50 is commonly meant the concentration that gives 50% inhibition.
